Measurements: patent US11912645B2, “Lipopeptide compounds for the treatment of pain disorders” (INSERM (Institut National de la Santé et de la Recherche …, priority 2017, dated 2024)

Test system: Caco-2 cells
Experiment: Paracellular permeability, 4 kDa FITC-dextran flux across Caco-2 monolayer
Type: cell-based, human
Settings: 10 μM apical, 24 h
Protocol: FIG. 5: C12-Asn-GABA crosses the epithelial barrier without modifying epithelial cells physiology. Caco-2 cells were cultivated into transwell chambers. After treatment with C12-Asn-GABA (800 ng) at the apical side, C12-Asn-GABA was quantified inside the cells and both the apical and basolateral compartments by LC-MS/MS (A); data are represented as mean±SEM, n=3 experiments of 3 wells per condition. Extracted ion chromatogram at the exact mass of GABA (104.0702 m/z) with a mass accuracy of 5 ppm of the GABA commercial standard (GABA (Std.) and apical and basolateral compartments after loading or not Caco-2 cells with 800 ng of GABA at the apical site (B); representation of one well, n=3 experiments of 3 wells per condition. Paracellular permeability assessed by the passage of FITC-dextran loaded at the apical side (C) and CXCL8 secretion assessed by ELISA (D) were monitored after treatment of Caco-2 cells at the apical side with C12-Asn-GABA (10 μM); data are represented as mean±SEM, n=3 experiments of 3 wells per condition. […]
To assess the effect of C12-Asn-GABA on paracellular permeability, transport of dextran 4 kDa FITC across a Caco-2 cell monolayer was investigated. […] In parallel, the release of CXCL8 from Caco-2 cells into the medium, of both apical and basolateral sides of the transwell, was assessed by ELISA. […]

CCCCCCCCCCCC(=O)NC(CC(N)=O)C(=O)NCCCC(=O)O (stereo not shown) [C12-Asn-GABA, C11 C(O)-Asn-gamma-aminobutyric acid]
percentage of 4 kDa FITC traversing the cell monolayers (paracellular permeability): not modified
